Results published in patent publication US6849596B1, “Regulatory/unfolding peptides of ezrin” (priority 1999, dated 2005).
Where no end group is shown, it is not given here.

Assay: Animal toxicology and pre-clinical testing of HEP1
Conditions: rat and rabbit

TEKKRRETVEREKE [HEP1, TEKKRRETVEREKE]
negative: Chronic toxicity | Effect of 1000× therapeutic dose | Embryotoxicity | Influence on CNS and HVS | Local Irritation | Mutagenic effects | Sub-acute toxicity | Preliminary evaluation of toxicity (pharmaceutical grade HEP1)
